The text below walks through data of patent US7087649B2, “Methods for preventing and treating diseases and conditions associated with cellular stress” (Eisai Co., Ltd., priority 2001, dated 2006).

Structures are written as SMILES.

One series deals with hangover. The series is described as follows: clinical self-experiment on hangover symptoms after alcohol consumption. The note with it: one inventor on themself; 50 mg orally (capsule) just prior to drinking, 50 mg during, 50 mg next morning; total 150 mg in fourteen hours. The format is in vivo, human. From the text:
The invention is based, in part, on a clinical experiment that an inventor of the invention described herein conducted on themself using SELBEX® (geranylgeranylacetone). On one occasion in the evening, they consumed an excessive amount of alcoholic beverages and awoke the following morning experiencing abdominal discomfort, nausea, fatigue, and headache. The normal measures that they had taken in the past to ameliorate hangover provided little relief. They decided that on the next occasion on which they would be drinking alcoholic beverages, they would ingest SELBEX® (geranylgeranylacetone) to determine whether it provided relief. Thus, on a subsequent evening, just prior to the drinking of alcoholic beverages, they ingested 50 mg of SELBEX® (geranylgeranylacetone) orally, in the form of a capsule marketed commercially by Eisai Co., Ltd. During the course of the evening, as they continued drinking alcoholic beverages, they ingested an additional 50 mg of SELBEX® (geranylgeranylacetone) orally. The next morning when they awoke, they ingested an additional 50 mg of SELBEX® (geranylgeranylacetone), bringing the total ingested during a fourteen hour period to 150 mg.

For series [1] the following is noted: cited from earlier work.
For series [2] the following is noted: cited from earlier work. The source holds these as a separate data set.

Take `CC(=O)CC/C=C(\C)CC/C=C(\C)CC/C=C(\C)CCC=C(C)C` [SELBEX® (geranylgeranylacetone), 3:2 (5E:5Z) geometrical mixture of (9E,13E)-6,10,14,18-tetramethyl-5,9,13,17-nonadecatetraen-2-one]: the “symptoms of hangover (abdominal discomfort, nausea, fatigue, and headache)” value in the series with hangover was “either abolished or markedly alleviated”. Also, in series [1] (methanol, ethanol, acetone, chloroform, and hexane), the “miscibility with organic solvents” value was “miscible”. In series [1] (water), the solubility in water result was “practically insoluble”. Moreover, in series [2], the stability to air entry is reported as “affected by air”.
